Key:
[1] = subarachnoideal space; in words; cited from earlier work
[2] = system: mice; experiment: Intravenous toxicity in mice (LD50); type: in vivo; conditions: concentration administered 300 mgI/ml
Excerpt: (§1) As indicated above, the new non-ionic compounds according to the invention have shown markedly low levels of toxicity, especially in intracerebral tests. […] It will be seen that all the new compounds listed are very much better than the known compounds in the intracerebral test.
(§2) Intravenous and Intracerebral Toxicity
(§3) Most of the compounds were so inert that it was not physically possible to inject sufficient substance to kill 50% of the mice and in such cases only a minimum value can be given for the LD50.

[3] = system: mice; experiment: Intracerebral toxicity in mice (LD50); type: in vivo
Excerpt: as §1, §2, §3

[4] = Solubility in water; type: physicochemical; conditions: water, room temperature; read-out: Solubility in water at room temperature (class)
[5] = Osmolality of aqueous solution; type: physicochemical; conditions: 37° C.; 300 mg I/ml
Method: As indicated above, the compounds according to the invention are of low osmolality as compared to conventional ionic contrast agents and many of the compounds show even lower osmolality values than would have been expected. The observed osmolality in each case would be expected to be about 0.8 mol/kg but compounds 3, 33, 35, 44 and 11 identified in Table I have shown osmolality values of 0.47, 0.48, 0.61, 0.53 and 0.48 mol/kg respectively at 37° C. (300 mg I ml). The last two compounds in Table 2, which are ionic compounds shown for comparison, have osmolality values of about 1.6 mol/kg.

[6] = Viscosity; type: physicochemical; conditions: 20° C.; 300 mgI/ml
Excerpt: However, the preferred compounds listed above in relation to the myelographic field are also very useful in cardiovascular visualisation due to their extremely good tolerance.

[7] = 300 mgI/ml, dose 0.05 ml/20 g mouse
[8] = 300 mgI/ml, dose 0.10 ml/20 g mouse

| SMILES | Absorption [1] | Toxicity in use [1] | Intravenous LD50 [2] | Intracerebral LD50 [3, 7] | solubility [4] | Osmolality [5] | Intracerebral LD50 [3, 8] | Intracerebral LD50 ([3]; 400 mgI/ml, dose 0.10 ml/20 g mouse) | Viscosity [6] |
| --- | --- | --- | --- | --- | --- | --- | --- | --- | --- |
| O=S(=O)(O)CI [iodomethane sulphonate] | quite rapidly absorbed | too toxic for cisternography, ventriculography and cervical or thoracic myelography | – | – | – | – | – | – | – |
| CC(=O)Nc1c(I)c(C(=O)N(C)C[C@H](O)[C@@H](O)[C@H](O)[C@H](O)CO)c(I)c(N(C)C(C)=O)c1I [Compound 3, N-(N-methyl-3,5-diacetamido-2,4,6-triiodobenzoyl)-N-methyl glucamine] | – | – | 6000 mgI/kg | > 750 mgI/kg | > 500 mg/mL | 0.47 mol/kg | – | – | – |
| CC(=O)Nc1c(I)c(C(=O)N[C@H]2C(O)O[C@H](CO)[C@@H](O)[C@@H]2O)c(I)c(N(C)C(C)=O)c1I (stereo partly drawn) [Compound 11, N-(N-methyl-3,5-diacetamido-2,4,6-triiodobenzoyl)-glucosamine] | – | – | 15000 mgI/kg | – | > 500 mg/mL | 0.48 mol/kg | > 1500 mgI/kg | – | – |
| CC(=O)N(C)c1c(I)c(C(=O)N(C)C[C@H](O)[C@@H](O)[C@H](O)[C@H](O)CO)c(I)c(N(CCO)C(C)=O)c1I [Compound 35, N-[3-N-methylacetamido-5-N-(β-hydroxyethyl)-acetamido-2,4,6-triiodobenzoyl]-N-methylglucamine] | – | – | – | > 750 mgI/kg | > 500 mg/mL | 0.61 mol/kg | – | > 2000 mgI/kg | – |
| CC(=O)N(CCO)c1c(I)c(C(=O)N(C)CC(O)CO)c(I)c(N(CCO)C(C)=O)c1I (stereo not drawn) [Compound 44] | – | – | – | > 750 mgI/kg | > 500 mg/mL | 0.53 mol/kg | > 1500 mgI/kg | – | – |
| CC(=O)Nc1c(I)c(C(=O)NC[C@H](O)[C@@H](O)[C@H](O)[C@H](O)CO)c(I)c(N(C)C(C)=O)c1I [Compound 33, N-(N-methyl-3,5-diacetamido-2,4,6-triiodobenzoyl)-D-glucamine] | – | – | 14250 mgI/kg | > 750 mgI/kg | > 500 mg/mL | 0.48 mol/kg | > 1500 mgI/kg | – | – |
| CC(=O)Nc1c(I)c(C(=O)N(C)CC(O)CO)c(I)c(C(=O)N(C)CC(O)CO)c1I (stereo not drawn) [Compound 9, 3,5-Bis-[N-(2,3-dihydroxypropyl)-N-methylcarbomoyl]-2,4,6-triiodoacetanilide] | – | – | 13500 mgI/kg | – | > 500 mg/mL | – | about 1500 mgI/kg | – | 7.1 cp |
| CNC(=O)c1c(I)c(NC(C)=O)c(I)c(C(=O)N(C)C[C@H](O)[C@@H](O)[C@H](O)[C@H](O)CO)c1I [Compound 6] | – | – | 10000 mgI/kg | – | > 500 mg/mL | – | > 1500 mgI/kg | – | – |

Reference: patent US4021481A, “Amido derivatives of 2,4,6-triiodobenzoic acids containing at least one N-hydroxyalkyl and at least two hydroxyl groups” (Nyegaard & Co. A/S, priority 1969, dated 1977)
